In US8507460B2, “Substituted 3′,5′-cyclic phosphates of purine nucleotide compounds and pharmaceutical compositions for the treatment of viral infections” (priority 2011, dated 2013):

Legend:
[1] = Stability in simulated gastric and intestinal fluids; type: in vitro ADME; conditions: 100 μM, 2 hours at 37° C., percent of peak area at time zero
Procedure: Simulated gastric and intestinal fluids containing pepsin and pancreatin respectively were prepared according to the U.S. Pharmacopoeia USP291 procedure (www.pharmacopeia.cn/v29240/usp29nf24s0_ris1s126.html). Test compound (final concentration 100 μM) was incubated in duplicate in the appropriate fluid for 2 hours at 37° C. The samples were quenched with 200 μl cold acetonitrile, vortexed for 30 seconds and then centrifuged at 16,100 g for 10 min. The supernatants were analyzed by HPLC on a C-18 column with UV detection at 252 nm. The time 0 samples were prepared by adding SGF or SIF fluid to the quenching solvent followed by the test compound. Stability of the compound was determined by peak area the test compound after incubation and calculated as percent of the peak area observed at time zero.

[2] = Plasma and liver pharmacokinetics following a single oral dose in mice (Example 6); type: in vivo; conditions: mouse, plasma, CD-1 mice, oral 25 mg/kg, 1a average of N = 2
Procedure: For each compound, a single oral dose at 25 mg/kg in PEG 200 (dose volume 5 mL/kg) was administered to [CD-1] mice. Untreated animals were used for the collection of control liver. Terminal liver and plasma samples were collected from three animals per time point at 4, 12 and 24 hours post dose and additionally at 1 hour post dose in one occasion of Compound 1 (see Example 5). Liver specimens were collected from all animals immediately after the incision. Freezing forceps stored in liquid nitrogen were used to freeze the liver before excision.
Plasma samples were analyzed for the prodrug and 2′-methylguanosine (2′-MeG) or relevant nucleoside by LC-MS/MS. For protein precipitation and extraction, each plasma sample (50 μL) was treated with 500 μL of 0.2% formic acid in acetonitrile and 20 μL of an appropriate internal standard working solution. After vortexing and centrifugation, 500 μL of the sample extracts were transferred to a new plate, dried under N2 at ˜28° C. and reconstituted with 75 μL of 0.2% FA in water. The extracts were chromatographed on an Aquasil C18 column using a gradient system of 0.2% formic acid in water and acetonitrile. The analytes were detected and quantified by tandem mass spectrometry in positive ion mode on an MDS Sciex API5000 or an API4000 equipped with a Turbo Ionspray® interface. The calibration range was 0.500 (LLOQ) to 200 ng/mL in mouse plasma. The corresponding range for molar units is 1.68 to 673 pmol/mL.
Liver samples were analyzed for the active species 2′-methylguanosine triphosphate (2′-MeGTP) or relevant nucleoside triphosphate by LC-MS/MS. The triphosphate levels were assayed by homogenizing (on ice) a known weight of mouse liver with 4× volume of 0.95 M trichloroacetic acid (TCA). Appropriate internal standard solution was added to the homogenate followed by neutralization with 20% ammonium hydroxide solution and addition of 500 μL 1% formic acid. The tissue samples were extracted by weak anion exchange solid phase extraction (SPE). Post extraction, the eluates were evaporated under nitrogen, followed by reconstitution before injection onto the LC-MS/MS system. The samples were chromatographed on a Luna NH2 column using a gradient system of ammonium acetate (1 mM to 20 mM and pH 8.0 to pH 10.0) in water and acetonitrile (70:30). The analyte was detected and quantified by tandem mass spectrometry in positive ion mode on an API4000 equipped with a Turbo Ionspray® interface. The calibration range was 10 to 10000 pmol/mL in mouse liver homogenate (50 to 50000 pmol/g of mouse liver).

HCV genotype 1b replicon = assay: HCV Replicon Assay (Zluc luciferase reporter); type: cell-based
Procedure: Huh-7-derived cell line (Zluc) that harbors an HCV genotype 1b replicon and a luciferase reporter gene was grown in Dulbecco's Modified Eagle Medium (DMEM) supplemented with 10% fetal bovine serum, 2 mM GlutaMAX, 1% MEM nonessential amino acids, 100 IU/mL penicillin, 100 μg/mL streptomycin, and 0.5 mg/mL Geneticin® (G418). For dose response testing the cells were seeded in 96-well plates at 7.5×10^3 cells per well in a volume of […], and incubated at 37° C./5% CO2. Drug solutions were made up freshly in Huh-7 media as 2× stocks. […] 5-fold dilutions were prepared from these stocks in DMEM without G418. At least three hours after Zluc cells were seeded, drug treatment was initiated by adding 50 μL of drug dilutions to the plates in duplicate. Final concentrations of drug ranged from 100 μM to 0.0000512 μM. Cells were then incubated at 37° C./5% CO2. Alternatively, compounds were tested at two concentrations (1 μM and 10 μM). […] After 72 hours of incubation, the inhibition of HCV replication was measured by quantification of photons emitted after mono-oxygenation of 5′-fluoroluciferin to oxyfluoroluciferin by firefly luciferase. For this, media was removed from the plates via gentle tapping. Fifty microliters of ONE-glo luciferase assay reagent was added to each well. The plates were shaken gently for 3 min at room temperature and luminescence was measured on a Victor^3 V 1420 multilabel counter (Perkin Elmer) with a 1 second read time using a 700 nm cut-off filter. The EC50 values were calculated from dose response curves from the resulting best-fit equations determined by Microsoft Excel and XLfit 4.1 software. When screening at two fixed concentrations, the results were expressed as % inhibition at 1 μM and 10 μM.

[3] = Stability in fresh human whole blood; type: in vitro ADME; conditions: 0.5 μM, percent unchanged
Procedure: Stability of test compounds were determined in fresh human whole blood with K2EDTA as the anticoagulant (stored refrigerated at 2-8° C. and used within 7 days of receipt). The experiment was conducted with three replicates for each time point. Whole blood, pre-incubated at 37° C. for 10-15 minutes, was fortified with a solution of test compound for a final concentration of 0.5 μM and mixed for 30 sec. At intervals (0, 0.5, 1 and 2 hr), three […] aliquots were combined with 200 μL (each) of an ice-cold solution of the internal standard (carbutamide 500 ng/mL in acetonitrile). The samples were vortexed for 30 sec and then centrifuged at 16,100 g for 5 min. The supernatant was analyzed by LC-MS/MS. The MS peak area ratio of the test compound versus the internal standard was calculated and percent unchanged test compound was calculated for each time point using this ratio.

[4] = Stability in rat whole blood; type: in vitro ADME

With CCOc1nc(N)nc2c1ncn2[C@@H]1O[C@@H]2COP(=O)(OC(C)C)O[C@H]2[C@@]1(C)O (single isomer, unassigned) [Compound 1a] the “Stability SGF” value ([1]; simulated gastric fluid with pepsin) was 99%, the “Stability SIF” value ([1]; simulated intestinal fluid with pancreatin) was 99% and the AUC(0-t) ([2]; normalized to 1 μmol/kg dose, read-out: Plasma prodrug AUC0-24) was 0.34 µM·h. For the same compound, the Cmax ([2]; normalized to 1 μmol/kg dose, read-out: Plasma prodrug Cmax) was 43 nM, the Tmax ([2]; read-out: Plasma prodrug Tmax) was 3 h and the selectivity index (HCV genotype 1b replicon; HCV replicon assay, Zluc cells) was “greater than 100”. For the same compound, the EC50 (HCV genotype 1b replicon; Zluc cells (Huh-7-derived, HCV genotype 1b replicon, luciferase reporter), 72 hours) was ≤ 250 nM, the “Stability WB_Human (37° C.; 2 hr)” value [3] was 101% and the “Stability WB_Rat (ice; 1 hr)” value [4] was 105%.
